Test system: postpartum sows
Test: Single timed injection 96 hours post-weaning and single timed insemination without estrus detection in postpartum sows (Example 3)
Assay type: in vivo, swine
Conditions: 50 mcg at 96 hours post-weaning
Experimental: Approximately 170 postpartum sows were randomly divided into two equal groups comprised of controls and treated. Following weaning, the controls were detected for estrus and bred following the normal standard operating procedures for the farms on which they resided. The treated sows received a 50 mcg dose of deslorelin in SAIB at 96 hours post-weaning and were bred with a single insemination 28+/−2 hours later with no regard to estrus detection. The sows were examined for pregnancy by ultrasound at 21 days and slaughtered around 28 days post breeding. The entire reproductive tract was removed and corpora lutea and embryos were counted.

CCNC(=O)[C@@H]1CCCN1C(=O)[C@H](CCCN=C(N)N)NC(=O)[C@H](CC(C)C)NC(=O)[C@@H](Cc1c[nH]c2ccccc12)NC(=O)[C@H](Cc1ccc(O)cc1)NC(=O)[C@H](CO)NC(=O)[C@H](Cc1c[nH]c2ccccc12)NC(=O)[C@H](Cc1cnc[nH]1)NC(=O)[C@@H]1CCC(=O)N1 [Deslorelin, deslorelin]
Sows Pregnant (single insemination 28+/-2 hours later, 84 in group): 60 | Embryo Survival (slaughter around 28 days post breeding): 64%

Source: US20140155327A1, “Process for the Synchronization of Ovulation for Timed Breeding Without Heat Detection” (priority 2003, published 2014)
